Experimental data reported in US10526291B2, “Potent dual BRD4-kinase inhibitors as cancer therapeutics” (H. Lee Moffitt Cancer Center and Research Institute, Inc., priority 2014, dated 2020).
Converted amounts (≈) assume the structure as drawn. “And” between values parts separate entries of the source, which are not always exact repeats. Equal values may be shown once. Read-outs that look alike come from different tables or passages of the source.

How the values were obtained:
BRDT-1 = molecular target: T1, BRDT-1 (Homo sapiens, UniProt Q58F21); test: BRDT-1 IC50; format: binding
T1 construct: BRDT-1; purchased

BRD4-1 = molecular target: T2, BRD4-1 (Homo sapiens, UniProt O60885); test: BRD4-1 IC50; format: binding
T2 construct: BRD4-1; purchased

UKE-1 = UKE-1 cell IC50; format: cell-based; conditions: UKE1
MV4-11 AML cells = test: MV-4-11 cell IC50 (antiproliferative activity); format: cell-based; conditions: Homo sapiens
Method: Cellular activity of promising compounds is assessed using MM.1S and MV4-11 AML cells using c-Myc levels as biomarker (6-12 hr treatment) and antiproliferative activity (48-72 hr treatment) as described (Ciceri et al., Dual kinase-bromodomain inhibitors for rationally designed polypharmacology. Nat Chem Biol 2014).

BRD4 [1] = molecular target: T3, BRD4 (Homo sapiens, UniProt O60885); test: Differential Scanning Fluorimetry (DSF), stability of BRD4 upon ligand binding; conditions: for ΔTm at 4 µM: 100 μM protein, 4 μM compound and 2% DMSO; for IC50: estimated
Method: (§1) DSF=Differential Scanning Fluorimetry; provides a measure of the increased stability of BRD4 upon ligand binding The DSF experiment was run at 100 μM protein, 4 μM compound and 2% DMSO.

NCI-H2052 = NCI-H2052 cell IC50; format: cell-based; conditions: Homo sapiens
BRD2 = molecular target: T4, BRD2 (Homo sapiens, UniProt P25440); test: BRD2 IC50 (RB, commercial BRD panel); format: binding
T4 construct: purchased
T4 sequence (P25440 whole entry): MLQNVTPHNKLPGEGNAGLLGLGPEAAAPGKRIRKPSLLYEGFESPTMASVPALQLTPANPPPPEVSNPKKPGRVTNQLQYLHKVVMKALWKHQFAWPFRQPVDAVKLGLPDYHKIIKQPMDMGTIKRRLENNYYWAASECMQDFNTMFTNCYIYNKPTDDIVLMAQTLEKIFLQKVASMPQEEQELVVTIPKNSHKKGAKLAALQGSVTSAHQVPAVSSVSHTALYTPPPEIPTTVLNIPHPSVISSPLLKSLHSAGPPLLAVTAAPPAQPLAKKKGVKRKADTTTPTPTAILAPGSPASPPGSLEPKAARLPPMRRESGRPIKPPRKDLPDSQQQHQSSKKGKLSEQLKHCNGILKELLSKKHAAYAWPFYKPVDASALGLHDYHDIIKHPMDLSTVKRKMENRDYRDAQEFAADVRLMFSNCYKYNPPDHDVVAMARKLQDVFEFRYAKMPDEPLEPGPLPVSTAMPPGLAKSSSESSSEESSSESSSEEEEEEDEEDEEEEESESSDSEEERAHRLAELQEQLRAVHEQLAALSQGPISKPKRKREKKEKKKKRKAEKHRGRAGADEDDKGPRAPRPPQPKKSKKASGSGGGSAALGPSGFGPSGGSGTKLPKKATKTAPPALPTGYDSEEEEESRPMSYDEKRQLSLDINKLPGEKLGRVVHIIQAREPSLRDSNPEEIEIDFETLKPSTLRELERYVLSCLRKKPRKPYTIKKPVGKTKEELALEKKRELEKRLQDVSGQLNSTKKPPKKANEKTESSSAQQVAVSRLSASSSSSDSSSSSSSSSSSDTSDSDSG

BRDT = molecular target: T5, BRDT (Homo sapiens, UniProt Q58F21); test: BRDT IC50 (RB, commercial BRD panel); format: binding
T5 construct: purchased

FLT3 = molecular target: T6, FLT3 (Homo sapiens, UniProt P36888); test: FLT3 IC50 (RB, commercial kinase panel); format: biochemical
T6 construct: purchased
T6 sequence (P36888 27-993): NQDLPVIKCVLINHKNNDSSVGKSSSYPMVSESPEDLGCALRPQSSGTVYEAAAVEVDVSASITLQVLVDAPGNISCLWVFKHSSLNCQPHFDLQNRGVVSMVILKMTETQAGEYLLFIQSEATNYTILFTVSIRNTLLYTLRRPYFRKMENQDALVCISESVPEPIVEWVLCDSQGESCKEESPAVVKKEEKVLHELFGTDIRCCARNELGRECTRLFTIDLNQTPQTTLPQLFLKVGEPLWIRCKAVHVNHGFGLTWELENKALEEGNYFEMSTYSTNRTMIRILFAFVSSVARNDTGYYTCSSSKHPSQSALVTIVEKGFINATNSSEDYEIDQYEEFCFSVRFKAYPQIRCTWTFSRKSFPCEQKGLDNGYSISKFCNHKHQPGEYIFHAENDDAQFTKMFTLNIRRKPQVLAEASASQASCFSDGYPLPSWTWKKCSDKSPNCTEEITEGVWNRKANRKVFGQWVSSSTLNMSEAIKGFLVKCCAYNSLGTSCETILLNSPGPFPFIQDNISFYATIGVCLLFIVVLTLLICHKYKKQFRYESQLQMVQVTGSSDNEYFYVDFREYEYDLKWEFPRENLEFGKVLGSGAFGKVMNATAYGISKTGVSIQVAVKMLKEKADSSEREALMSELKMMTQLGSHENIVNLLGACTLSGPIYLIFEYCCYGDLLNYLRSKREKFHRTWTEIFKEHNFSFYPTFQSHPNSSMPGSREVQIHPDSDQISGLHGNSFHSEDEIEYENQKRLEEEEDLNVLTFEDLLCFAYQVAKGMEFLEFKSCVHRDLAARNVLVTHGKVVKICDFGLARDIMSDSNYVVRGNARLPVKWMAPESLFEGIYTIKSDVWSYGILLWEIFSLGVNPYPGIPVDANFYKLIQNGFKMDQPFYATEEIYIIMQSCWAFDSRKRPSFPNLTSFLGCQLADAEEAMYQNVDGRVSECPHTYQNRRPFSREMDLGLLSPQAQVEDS

MM.1S cells = test: MM.1S cell survival, MTT assay; format: cell-based; conditions: Homo sapiens, MM1.S, 72 h, 72 hours compound exposure
SAOS-2 = SAOS-2 cell IC50; format: cell-based; conditions: Homo sapiens
BRD3 = molecular target: T7, BRD3 (Homo sapiens, UniProt Q15059); test: BRD3 IC50 (RB, commercial BRD panel); format: binding
T7 construct: purchased
T7 sequence (Q15059 whole entry): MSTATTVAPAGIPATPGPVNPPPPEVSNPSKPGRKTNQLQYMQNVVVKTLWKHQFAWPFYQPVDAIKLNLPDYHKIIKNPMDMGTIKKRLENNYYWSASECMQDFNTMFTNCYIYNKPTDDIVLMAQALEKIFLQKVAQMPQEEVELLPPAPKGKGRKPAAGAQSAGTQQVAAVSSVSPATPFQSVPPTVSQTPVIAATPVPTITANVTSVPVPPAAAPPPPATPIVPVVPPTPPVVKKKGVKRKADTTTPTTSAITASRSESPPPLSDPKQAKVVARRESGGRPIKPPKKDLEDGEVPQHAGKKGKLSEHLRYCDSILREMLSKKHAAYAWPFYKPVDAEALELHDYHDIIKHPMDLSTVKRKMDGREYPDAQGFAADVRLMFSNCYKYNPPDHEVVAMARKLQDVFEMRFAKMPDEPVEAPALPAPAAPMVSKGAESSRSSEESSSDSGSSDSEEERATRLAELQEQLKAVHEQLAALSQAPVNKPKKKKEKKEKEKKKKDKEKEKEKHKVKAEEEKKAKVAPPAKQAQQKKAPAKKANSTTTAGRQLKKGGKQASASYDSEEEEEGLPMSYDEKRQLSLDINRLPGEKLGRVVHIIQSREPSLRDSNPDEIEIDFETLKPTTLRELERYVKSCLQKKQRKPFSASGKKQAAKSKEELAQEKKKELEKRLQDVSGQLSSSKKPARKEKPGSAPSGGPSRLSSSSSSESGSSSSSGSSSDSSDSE

BRD4 [2] = molecular target: T3, BRD4; test: BRD4 IC50 (RB, commercial BRD panel); format: binding
JAK2 = molecular target: T8, JAK2 (Homo sapiens, UniProt O60674); test: JAK2 IC50 (RB, commercial kinase panel); format: biochemical
T8 construct: purchased
T8 sequence (O60674 whole entry): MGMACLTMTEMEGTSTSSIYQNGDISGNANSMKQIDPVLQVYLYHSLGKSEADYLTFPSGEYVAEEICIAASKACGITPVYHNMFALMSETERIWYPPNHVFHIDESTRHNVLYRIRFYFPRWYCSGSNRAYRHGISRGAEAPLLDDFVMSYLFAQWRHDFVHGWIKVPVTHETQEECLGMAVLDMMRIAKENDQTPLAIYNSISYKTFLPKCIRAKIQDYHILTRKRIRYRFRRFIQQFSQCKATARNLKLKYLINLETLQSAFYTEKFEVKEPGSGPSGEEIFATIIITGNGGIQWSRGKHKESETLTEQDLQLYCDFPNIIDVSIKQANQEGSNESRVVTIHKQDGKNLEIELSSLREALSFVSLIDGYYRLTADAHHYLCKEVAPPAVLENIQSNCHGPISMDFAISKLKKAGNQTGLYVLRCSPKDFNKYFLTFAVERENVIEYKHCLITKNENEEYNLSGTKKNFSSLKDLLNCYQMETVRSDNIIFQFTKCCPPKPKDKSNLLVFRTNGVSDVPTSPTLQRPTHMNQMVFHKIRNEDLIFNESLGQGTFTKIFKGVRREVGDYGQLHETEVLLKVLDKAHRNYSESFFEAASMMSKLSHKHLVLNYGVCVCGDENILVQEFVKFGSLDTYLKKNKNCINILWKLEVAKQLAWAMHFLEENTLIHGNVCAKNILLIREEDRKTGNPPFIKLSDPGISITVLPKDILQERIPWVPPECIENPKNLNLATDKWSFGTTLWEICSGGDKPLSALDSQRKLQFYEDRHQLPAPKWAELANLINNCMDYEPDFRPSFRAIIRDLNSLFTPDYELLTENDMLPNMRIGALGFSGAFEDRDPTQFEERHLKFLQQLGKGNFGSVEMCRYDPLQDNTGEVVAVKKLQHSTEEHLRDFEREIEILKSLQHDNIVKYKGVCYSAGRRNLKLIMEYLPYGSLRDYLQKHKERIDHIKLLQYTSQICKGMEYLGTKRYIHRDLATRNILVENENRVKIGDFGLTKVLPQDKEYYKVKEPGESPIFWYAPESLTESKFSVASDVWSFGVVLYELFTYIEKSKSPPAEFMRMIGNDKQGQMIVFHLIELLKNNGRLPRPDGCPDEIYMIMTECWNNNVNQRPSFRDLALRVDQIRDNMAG

[3] = Precipitation in DSF buffer; format: physicochemical
Method: as §1

JAK1 = molecular target: T9, JAK1 (Homo sapiens, UniProt P23458); test: JAK1 IC50 (RB, commercial kinase panel); format: biochemical
T9 construct: purchased
T9 sequence (P23458 whole entry): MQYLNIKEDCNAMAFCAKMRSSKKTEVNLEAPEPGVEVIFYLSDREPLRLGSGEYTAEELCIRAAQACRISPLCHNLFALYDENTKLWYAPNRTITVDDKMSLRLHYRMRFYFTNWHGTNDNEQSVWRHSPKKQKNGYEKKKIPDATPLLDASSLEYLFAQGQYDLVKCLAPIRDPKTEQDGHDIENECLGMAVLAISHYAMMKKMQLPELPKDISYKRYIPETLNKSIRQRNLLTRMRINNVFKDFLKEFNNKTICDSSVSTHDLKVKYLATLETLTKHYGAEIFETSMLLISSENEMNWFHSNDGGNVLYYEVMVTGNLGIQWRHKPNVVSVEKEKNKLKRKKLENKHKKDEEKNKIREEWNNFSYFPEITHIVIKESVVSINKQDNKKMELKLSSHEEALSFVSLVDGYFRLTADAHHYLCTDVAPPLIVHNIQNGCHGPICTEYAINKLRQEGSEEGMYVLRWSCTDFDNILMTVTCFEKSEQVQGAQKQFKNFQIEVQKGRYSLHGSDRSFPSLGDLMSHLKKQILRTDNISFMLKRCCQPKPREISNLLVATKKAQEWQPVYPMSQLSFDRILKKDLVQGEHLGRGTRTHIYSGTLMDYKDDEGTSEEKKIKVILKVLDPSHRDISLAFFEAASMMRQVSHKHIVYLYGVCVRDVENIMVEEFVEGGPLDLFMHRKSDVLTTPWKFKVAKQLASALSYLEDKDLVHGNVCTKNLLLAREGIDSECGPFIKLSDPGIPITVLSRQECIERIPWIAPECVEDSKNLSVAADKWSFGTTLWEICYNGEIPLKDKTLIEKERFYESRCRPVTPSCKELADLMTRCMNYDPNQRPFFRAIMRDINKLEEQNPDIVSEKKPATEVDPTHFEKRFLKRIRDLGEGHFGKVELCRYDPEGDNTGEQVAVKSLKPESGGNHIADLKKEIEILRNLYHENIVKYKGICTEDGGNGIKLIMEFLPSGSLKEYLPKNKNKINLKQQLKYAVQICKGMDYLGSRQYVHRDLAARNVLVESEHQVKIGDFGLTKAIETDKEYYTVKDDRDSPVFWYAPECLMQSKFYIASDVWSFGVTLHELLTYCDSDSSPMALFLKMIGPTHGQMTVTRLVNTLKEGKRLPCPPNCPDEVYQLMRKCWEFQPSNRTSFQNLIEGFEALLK

JAK3 = molecular target: T10, JAK3 (Homo sapiens, UniProt P52333); test: JAK3 IC50 (RB, commercial kinase panel); format: biochemical
T10 construct: purchased
T10 sequence (P52333 1-1124): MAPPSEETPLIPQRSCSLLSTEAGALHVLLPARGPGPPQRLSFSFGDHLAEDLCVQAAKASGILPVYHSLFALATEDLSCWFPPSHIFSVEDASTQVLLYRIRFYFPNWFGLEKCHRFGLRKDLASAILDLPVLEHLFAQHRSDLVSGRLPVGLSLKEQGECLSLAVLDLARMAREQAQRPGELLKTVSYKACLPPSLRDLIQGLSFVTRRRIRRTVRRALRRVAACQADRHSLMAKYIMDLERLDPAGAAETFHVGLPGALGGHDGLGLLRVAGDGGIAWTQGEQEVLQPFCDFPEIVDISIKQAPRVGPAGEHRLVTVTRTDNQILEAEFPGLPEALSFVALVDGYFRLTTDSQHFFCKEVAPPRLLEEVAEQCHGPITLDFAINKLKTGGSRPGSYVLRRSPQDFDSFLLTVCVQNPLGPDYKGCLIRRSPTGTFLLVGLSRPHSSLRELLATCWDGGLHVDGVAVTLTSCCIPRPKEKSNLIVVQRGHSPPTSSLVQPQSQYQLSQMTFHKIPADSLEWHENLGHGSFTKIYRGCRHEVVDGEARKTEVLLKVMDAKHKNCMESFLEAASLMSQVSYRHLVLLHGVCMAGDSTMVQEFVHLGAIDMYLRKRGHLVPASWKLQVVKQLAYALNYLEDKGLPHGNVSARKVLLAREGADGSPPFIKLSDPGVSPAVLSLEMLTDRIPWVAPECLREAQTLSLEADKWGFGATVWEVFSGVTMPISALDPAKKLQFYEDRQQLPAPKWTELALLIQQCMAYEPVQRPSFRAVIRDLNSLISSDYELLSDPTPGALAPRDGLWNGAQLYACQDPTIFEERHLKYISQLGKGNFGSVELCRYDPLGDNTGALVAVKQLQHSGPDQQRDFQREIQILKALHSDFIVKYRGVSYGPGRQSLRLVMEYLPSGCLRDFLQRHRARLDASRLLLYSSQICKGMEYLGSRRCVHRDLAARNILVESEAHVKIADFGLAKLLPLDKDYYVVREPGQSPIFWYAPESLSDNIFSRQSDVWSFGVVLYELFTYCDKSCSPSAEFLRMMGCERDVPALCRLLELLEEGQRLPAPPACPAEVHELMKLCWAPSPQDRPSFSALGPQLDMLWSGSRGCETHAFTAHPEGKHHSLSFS

HEK293 = HEK293 cell IC50; format: cell-based; conditions: Homo sapiens
BRD4-2 = molecular target: T11, BRD4-2 (Homo sapiens, UniProt O60885); test: BRD4-2 IC50; format: binding
T11 construct: BRD4-2; purchased

Solubility in PBS buffer = format: physicochemical

Row | IC50 (BRDT-1) [µM] | IC50 (BRD4-1) [µM] | IC50 (UKE-1) [µM] | IC50 (MV4-11 AML cells) [µM] | ΔTm at 4 µM (BRD4 [1]) [°C] | IC50 (BRD4 [1]) | IC50 (NCI-H2052) [µM] | IC50 (BRD2) [µM] | IC50 (BRDT) [µM] | IC50 (FLT3) [µM] | IC50 (SAOS-2) [µM] | IC50 (BRD3) [µM] | IC50 (BRD4 [2]; read-out: BRD4 IC50) [µM] | IC50 (JAK2) [µM] | Precipitation in DSF buffer [3] | Compound | IC50 (MM.1S cells) [µM] | also measured
1 | 0.023 | 0.01 | 0.22 | 0.038 | 12.5 ± 0.165 | 0.0013 µM | > 10 | – | – | – | – | – | – | – | – | Cc1cnc(Nc2ccc(C(=O)NC3CCN(C)CC3)c(F)c2)nc1Nc1ccc(Cl)c(NS(=O)(=O)C(C)(C)C)c1 | – | –
2 | – | – | 0.512 | 0.186 | 9.57 ± 0.086 | 0.01 µM | – | 0.0814 | 0.0278 | 0.00971 | 0.567 | 0.0165 | 0.00404 | 0.0112 | – | Cc1cnc(Nc2ccc(N3CCN(C)CC3)cc2)nc1Nc1ccc(Cl)c(NS(=O)(=O)C(C)(C)C)c1 [drawing 109] | 0.074 | –
3 | – | – | – | – | 2.46 ± 0.111 | 4.95 µM | – | – | – | – | – | – | – | – | Precipitation interferes with the assay | Cc1cnc(Nc2ccc(N3CCN(C)CC3)c(C(F)(F)F)c2)nc1Nc1ccc(Cl)c(NS(=O)(=O)C(C)(C)C)c1 | – | –
4 | – | – | – | – | 0.57 ± 0.124 | 16.8 µM | – | – | – | – | – | – | – | – | Precipitation observed in DSF buffer | CN1CCN(c2ccc(Nc3ncc(F)c(Nc4ccc(Cl)c(NS(=O)(=O)C(C)(C)C)c4)n3)cc2F)CC1 | 0.16 | –
5 | – | – | – | – | 5.22 ± 0.065 | 0.835 µM | – | – | – | – | – | – | – | – | Precipitation observed in DSF buffer | CN1CCN(c2ccc(Nc3ncc(Cl)c(Nc4ccc(Cl)c(NS(=O)(=O)C(C)(C)C)c4)n3)cc2F)CC1 | 0.11 | –
6 | – | – | 0.26 | – | 8.54 ± 0.088 | 0.025 µM | – | 0.625 | 0.0291 | 0.000917 | 0.184 | 0.0125 | 0.0102 | – | – | Cc1cnc(Nc2ccc(N3CCN(C)CC3)cc2)nc1Nc1cccc(NS(=O)(=O)C(C)(C)C)c1 | 0.4 | IC50 (JAK1): 0.00458 µM; IC50 (JAK3): 0.0914 µM; IC50 (HEK293): 1.2 µM
7 | 0.0413 | 0.0243 | 0.2 | 0.0268 | 9.5 ± 0.14 | 0.014 µM and 0.0039 µM | 1.4 | – | – | 0.0011 | 0.133 | – | – | 0.00114 | – | Cc1cnc(Nc2ccc(N3CCN(C)CC3)c(F)c2)nc1Nc1cccc(NS(=O)(=O)C(C)(C)C)c1 | 0.16 | IC50 (BRD4-2): 0.022 µM
8 | – | – | – | – | – | – | – | – | – | – | – | – | – | – | – | Cc1cnc(Nc2ccc(N3CCN(C)CC3)cc2)nc1Nc1ccc(Cl)c(NS(=O)(=O)C(C)(C)C)c1 [SG3-014B2.MSA] | – | Solubility (Solubility in PBS buffer; PBS buffer (15% HPCD)): Solubility > 14.4 mg mg in 1 mL; Solubility (Solubility in PBS buffer; PBS buffer (~9.3% DMSO)): DMSO) = 0.416 mg mg in 1 mL; Solubility (Solubility in PBS buffer; aqueous with cosolvent or surfactant or cyclodextrin, PBS buffer (~9.3% DMSO), read-out: Solubility): 650 µM (≈ 354 µg/mL)
9 | 0.019 | 0.0112 | 0.294 | 0.0532 | 11 ± 0.04 | 0.0048 µM and 0.0013 µM | 2.5 | – | – | 0.0107 | 0.32 | – | – | – | – | Cc1cnc(Nc2ccc(N3CCN(C)CC3)c(F)c2)nc1Nc1ccc(Cl)c(NS(=O)(=O)C(C)(C)C)c1 | 0.059 | IC50 (BRD4-2): 0.0175 µM
10 | – | – | – | – | 5.6 ± 0.082 | 0.29 µM | – | 2.8 | 1.4 | – | – | 1.14 | 0.617 | 0.00069 | – | COc1cc(Nc2nc(Nc3ccc(N4CCN(C)CC4)cc3)ncc2C)ccc1Cl | 0.42 | IC50 (JAK1): 0.00183 µM; IC50 (JAK3): 0.00906 µM; IC50 (HEK293): 0.38 µM; IC50 (BRD4 [2]; read-out: BRD4 IC50 (RB)): 0.617 µM
